Earlier results as cited in patent US9301985B2, “Therapeutic agent for dementia” (Kibun Foods Inc., priority 2013, dated 2016).

What was measured:
[1] = test system: cerebrovascular dementia model and Alzheimer's disease model; conditions: rat; cerebrovascular dementia model (vessel artificially clogged) and Alzheimer's disease model
k-opioid receptor = k-opioid receptor (Homo sapiens, UniProt P41145); conditions: erinacine E derived from Hericium ramosum
[2] = test system: nerve growth factor (NGF); conditions: erinacine E derived from Hericium erinaceum

Chain of k-opioid receptor (P41145 whole entry): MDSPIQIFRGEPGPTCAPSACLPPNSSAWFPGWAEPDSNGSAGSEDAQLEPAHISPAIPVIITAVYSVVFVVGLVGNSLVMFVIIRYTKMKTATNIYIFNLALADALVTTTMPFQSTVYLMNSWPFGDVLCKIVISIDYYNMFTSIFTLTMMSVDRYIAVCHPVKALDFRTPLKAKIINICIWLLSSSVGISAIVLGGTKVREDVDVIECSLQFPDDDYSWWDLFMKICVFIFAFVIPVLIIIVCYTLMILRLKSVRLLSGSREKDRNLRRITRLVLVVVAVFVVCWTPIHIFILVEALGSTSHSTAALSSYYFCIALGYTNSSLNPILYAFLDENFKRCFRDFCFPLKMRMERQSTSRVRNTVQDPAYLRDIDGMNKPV

Row | activity at k-opioid receptor (k-opioid receptor) | Structure (SMILES) | memory retention and learning ability [1] | nerve growth factor (NGF) production [2]
1 | – | CC(C)C1=C2C3=CC=C(C=O)C[C@H](O[C@@H]4OC[C@@H](O)[C@H](O)[C@H]4O)[C@]3(C)CC[C@@]2(C)CC1 [erinacine A] | apparent improvement | –
2 | agonist | CC(C)C1=C2C3CC=C4C(O)C5(O)COC6OC(C4C6(O)C5O)C3(C)CCC2(C)CC1 (stereo not shown) [erinacine E] | – | action to accelerate
3 | – | CCCCCCCCCCCCCCCC(=O)OCc1cc(OC)c(C/C=C(\C)CC(=O)C=C(C)C)c(O)c1C=O [hericenone C] | apparent improvement | –
